According to patent publication US9326506B2, “Preparation method, agricultural composition and applications of natural brassinolide analogs” (CHENGDU NEWSUN CROPSCIENCE CO., LTD, priority 2012, dated 2016):

Test system: rice
Assay: Low temperature assay on rice seedlings
Type: in vivo
In short: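 Nine-day-old etiolated rice seedlings (grown on water at 30 °C±2 °C, dark) immersed in brassinolide analogues at 1–0.0001 mg/L or pure water, held at 1–5 °C for 24 hr. Plant height, leaf area, root weight read at 3, 6, 9, 12 days; leaf and tiller number at 12 days.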

## CC(C)(O)CC[C@@H](O)[C@](C)(O)[C@H]1CC[C@@]2(O)[C@@H]3CC(=O)[C@@H]4C[C@@H](O)[C@@H](O)C[C@]4(C)[C@H]3CC[C@]12C [BR6]
0.0001 mg/l, 1 °C, 3 days
  Area of leaf: 10 cm^2
  Height: 7.1 cm
  Weight of root: 2.8 g
0.0001 mg/l, 1 °C, 6 days
  Area of leaf: 11.2 cm^2
  Height: 7.2 cm
  Weight of root: 3.1 g
0.0001 mg/l, 1 °C, 9 days
  Area of leaf: 12.4 cm^2
  Height: 7.4 cm
  Weight of root: 3.5 g
0.0001 mg/l, 1 °C, 12 days
  Area of leaf: 13 cm^2
  Height: 7.4 cm
  Number of leaf: 3
  Number of tiller: 3
  Weight of root: 3.9 g
0.0001 mg/l, 2 °C, 3 days
  Area of leaf: 10.2 cm^2
  Height: 7.1 cm
  Weight of root: 2.8 g
0.0001 mg/l, 2 °C, 6 days
  Area of leaf: 11.7 cm^2
  Height: 7.2 cm
  Weight of root: 3.0 g
0.0001 mg/l, 2 °C, 9 days
  Area of leaf: 12.6 cm^2
  Height: 7.3 cm
  Weight of root: 3.2 g
0.0001 mg/l, 2 °C, 12 days
  Area of leaf: 13 cm^2
  Height: 7.5 cm
  Number of leaf: 3
  Number of tiller: 3
  Weight of root: 3.9 g
0.0001 mg/l, 3 °C, 3 days
  Area of leaf: 10.4 cm^2
  Height: 7.1 cm
  Weight of root: 2.5 g
0.0001 mg/l, 3 °C, 6 days
  Area of leaf: 12 cm^2
  Height: 7.2 cm
  Weight of root: 2.6 g
0.0001 mg/l, 3 °C, 9 days
  Area of leaf: 12.6 cm^2
  Height: 7.5 cm
  Weight of root: 2.9 g
0.0001 mg/l, 3 °C, 12 days
  Area of leaf: 13.2 cm^2
  Height: 7.6 cm
  Number of leaf: 3
  Number of tiller: 2
  Weight of root: 2.9 g
0.0001 mg/l, 4 °C, 3 days
  Area of leaf: 10.6 cm^2
  Height: 7.1 cm
  Weight of root: 2.5 g
0.0001 mg/l, 4 °C, 6 days
  Area of leaf: 12.2 cm^2
  Height: 7.3 cm
  Weight of root: 2.6 g
0.0001 mg/l, 4 °C, 9 days
  Area of leaf: 13 cm^2
  Height: 7.5 cm
  Weight of root: 2.8 g
0.0001 mg/l, 4 °C, 12 days
  Area of leaf: 13.4 cm^2
  Height: 7.7 cm
  Number of leaf: 3
  Number of tiller: 2
  Weight of root: 2.9 g
0.0001 mg/l, 5 °C, 3 days
  Area of leaf: 10.6 cm^2
  Height: 7.2 cm
  Weight of root: 2.6 g
0.0001 mg/l, 5 °C, 6 days
  Area of leaf: 12.8 cm^2
  Height: 7.5 cm
  Weight of root: 2.7 g
0.0001 mg/l, 5 °C, 9 days
  Area of leaf: 13.6 cm^2
  Height: 7.5 cm
  Weight of root: 2.9 g
0.0001 mg/l, 5 °C, 12 days
  Area of leaf: 14 cm^2
  Height: 7.8 cm
  Number of leaf: 3
  Number of tiller: 2
  Weight of root: 3.0 g
0.001 mg/l, 1 °C, 3 days
  Area of leaf: 10 cm^2
  Height: 6.9 cm
  Weight of root: 2.8 g
0.001 mg/l, 1 °C, 6 days
  Area of leaf: 11.3 cm^2
  Height: 7.1 cm
  Weight of root: 3.1 g
0.001 mg/l, 1 °C, 9 days
  Area of leaf: 12.6 cm^2
  Height: 7.3 cm
  Weight of root: 3.4 g
0.001 mg/l, 1 °C, 12 days
  Area of leaf: 13 cm^2
  Height: 7.3 cm
  Number of leaf: 3
  Number of tiller: 3
  Weight of root: 3.9 g
0.001 mg/l, 2 °C, 3 days
  Area of leaf: 10.3 cm^2
  Height: 6.9 cm
  Weight of root: 2.8 g
0.001 mg/l, 2 °C, 6 days
  Area of leaf: 11.8 cm^2
  Height: 7.1 cm
  Weight of root: 3.0 g
0.001 mg/l, 2 °C, 9 days
  Area of leaf: 12.7 cm^2
  Height: 7.2 cm
  Weight of root: 3.2 g
0.001 mg/l, 2 °C, 12 days
  Area of leaf: 13.1 cm^2
  Height: 7.3 cm
  Number of leaf: 3
  Number of tiller: 3
  Weight of root: 3.9 g
0.001 mg/l, 3 °C, 3 days
  Area of leaf: 10.4 cm^2
  Height: 7 cm
  Weight of root: 2.5 g
0.001 mg/l, 3 °C, 6 days
  Area of leaf: 12 cm^2
  Height: 7.1 cm
  Weight of root: 2.6 g
0.001 mg/l, 3 °C, 9 days
  Area of leaf: 12.6 cm^2
  Height: 7.4 cm
  Weight of root: 2.9 g
0.001 mg/l, 3 °C, 12 days
  Area of leaf: 13.2 cm^2
  Height: 7.4 cm
  Number of leaf: 3
  Number of tiller: 2
  Weight of root: 2.9 g
0.001 mg/l, 4 °C, 3 days
  Area of leaf: 10.6 cm^2
  Height: 7.1 cm
  Weight of root: 2.5 g
0.001 mg/l, 4 °C, 6 days
  Area of leaf: 12.4 cm^2
  Height: 7.3 cm
  Weight of root: 2.6 g
0.001 mg/l, 4 °C, 9 days
  Area of leaf: 13.1 cm^2
  Height: 7.5 cm
  Weight of root: 2.9 g
0.001 mg/l, 4 °C, 12 days
  Area of leaf: 13.5 cm^2
  Height: 7.7 cm
  Number of leaf: 3
  Number of tiller: 2
  Weight of root: 2.9 g
0.001 mg/l, 5 °C, 3 days
  Area of leaf: 10.7 cm^2
  Height: 7.5 cm
  Weight of root: 2.8 g
0.001 mg/l, 5 °C, 6 days
  Area of leaf: 14.6 cm^2
  Height: 7.8 cm
  Weight of root: 2.7 g
0.001 mg/l, 5 °C, 9 days
  Area of leaf: 16 cm^2
  Height: 7.9 cm
  Weight of root: 3.0 g
0.001 mg/l, 5 °C, 12 days
  Area of leaf: 17 cm^2
  Height: 8.2 cm
  Number of leaf: 3
  Number of tiller: 3
  Weight of root: 3.7 g
0.01 mg/l, 1 °C, 3 days
  Area of leaf: 10 cm^2
  Height: 7.0 cm
  Weight of root: 2.8 g
0.01 mg/l, 1 °C, 6 days
  Area of leaf: 11.9 cm^2
  Height: 7.2 cm
  Weight of root: 3.0 g
0.01 mg/l, 1 °C, 9 days
  Area of leaf: 12.9 cm^2
  Height: 7.3 cm
  Weight of root: 3.4 g
0.01 mg/l, 1 °C, 12 days
  Area of leaf: 13.6 cm^2
  Height: 7.4 cm
  Number of leaf: 3
  Number of tiller: 3
  Weight of root: 3.9 g
0.01 mg/l, 2 °C, 3 days
  Area of leaf: 10.6 cm^2
  Height: 7.0 cm
  Weight of root: 2.8 g
0.01 mg/l, 2 °C, 6 days
  Area of leaf: 11.8 cm^2
  Height: 7.2 cm
  Weight of root: 3.0 g
0.01 mg/l, 2 °C, 9 days
  Area of leaf: 12.8 cm^2
  Height: 7.3 cm
  Weight of root: 3.1 g
0.01 mg/l, 2 °C, 12 days
  Area of leaf: 13.4 cm^2
  Height: 7.5 cm
  Number of leaf: 3
  Number of tiller: 3
  Weight of root: 3.2 g
0.01 mg/l, 3 °C, 3 days
  Area of leaf: 10.4 cm^2
  Height: 7 cm
  Weight of root: 2.5 g
0.01 mg/l, 3 °C, 6 days
  Area of leaf: 12 cm^2
  Height: 7.2 cm
  Weight of root: 2.6 g
0.01 mg/l, 3 °C, 9 days
  Area of leaf: 12.6 cm^2
